Assay results published in patent US7915292B2, “Antibacterial quinoline derivatives” (Janssen Pharmaceutica NV, priority 2005, dated 2011).
In brackets after ≈: the same amount, converted by molar mass.

Key:
M. Smegmatis ATCC607 = assay: In-vitro anti-bacterial activity against strain M. smegmatis ATCC607 (Alamar Blue growth inhibition); type: cell-based; details: Mycolicibacterium smegmatis, 48 hours incubation, read-out: M. smegmatis pIC50 (converted)
Method in brief: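 Five-fold serial compound dilutions were inoculated with about 250 CFU/well in Mueller-Hinton broth and incubated 48 h at 37° C under 5% CO2. Growth was read by Alamar Blue fluorescence (ex 530/em 590 nm) after a further 2 h. Percent growth inhibition was expressed as pIC50.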

ECO 25922 = assay: Microtitre plate assay, IC90 determination, ECO 25922; type: cell-based, E. coli; details: Escherichia coli; 90% inhibitory concentration for bacterial growth; strain ECO 25922; 24 hours at 37° C.; read-out: IC90 (μg/ml) ECO 25922
Experimental: (§1) Stocks (0.5 ml/tube) were stored at -70° C. until use. Bacteria titrations were performed in microtiter plates to detect the TCID50, in which the TCID50 represents the dilution that gives rise to bacterial growth in 50% of inoculated cultures. In general, an inoculum level of approximately 100 TCID50 was used for susceptibility testing. […] Serial five-fold dilutions (45 μl in 180 μl) were made directly in the microtiter plates from column 2 to reach column 11. Untreated control samples with (column 1) and without (column 12) inoculum were included in each microtiter plate. Depending on the bacteria type, approximately 10 to 60 CFU per well of bacteria inoculum (100 TCID50), in a volume of 100 μl in 2.8× Mueller-Hinton broth medium, was added to the rows […]. The same volume of broth medium without inoculum was added to column 12 in row A to H. The cultures were incubated at 37° C. for 24 hours under a normal atmosphere (incubator with open air valve and continuous ventilation). At the end of incubation, one day after inoculation, the bacterial growth was quantitated fluorometrically. Therefore resazurin (0.6 mg/ml) was added in a volume of 20 μl to all wells 3 hours after inoculation, and the plates were re-incubated overnight. A change in colour from blue to pink indicated the growth of bacteria. The fluorescence was read in a computer-controlled fluorometer (Cytofluor Biosearch) at an excitation wavelength of 530 nm and an emission wavelength of 590 nm. The % growth inhibition achieved by the compounds was calculated according to standard methods. The IC90 (expressed in μg/ml) was defined as the 90% inhibitory concentration for bacterial growth.

EFA 29212 = assay: Microtitre plate assay, IC90 determination, EFA 29212; type: cell-based, E. faecalis; details: Enterococcus faecalis; 90% inhibitory concentration for bacterial growth; strain EFA 29212; 24 hours at 37° C.; read-out: IC90 (μg/ml) EFA 29212
Experimental: as §1

LMO 49594 = assay: Microtitre plate assay, IC90 determination, LMO 49594; type: cell-based, Listeria monocytogenes; details: Listeria monocytogenes; 90% inhibitory concentration for bacterial growth; strain LMO 49594; 24 hours at 37° C.; read-out: IC90 (μg/ml) LMO 49594
Experimental: as §1

SMU 33402 = assay: Microtitre plate assay, IC90 determination, SMU 33402; type: cell-based, S. mutans; details: Streptococcus mutans; 90% inhibitory concentration for bacterial growth; strain SMU 33402; 24 hours at 37° C.; read-out: IC90 (μg/ml) SMU 33402
Experimental: as §1

STA 43300 = assay: Microtitre plate assay, IC90 determination, STA 43300; type: cell-based, S. aureus; details: Staphylococcus aureus; 90% inhibitory concentration for bacterial growth; strain STA 43300; 24 hours at 37° C.; read-out: IC90 (μg/ml) STA 43300
Experimental: as §1, with “Therefore resazurin (0.6 mg/ml) was added in a volume of 20 μl to all wells 3 hours after inoculation, and the plates were re-incubated overnight. A change in colour from blue to pink indicated the growth of bacteria.” left out, “The IC90 (expressed in μg/ml) was defined as the 90% inhibitory concentration for bacterial growth.” left out

STA 29213 = assay: Microtitre plate assay, IC90 determination, STA 29213; type: cell-based, S. aureus; details: Staphylococcus aureus; 90% inhibitory concentration for bacterial growth; strain STA 29213; 24 hours at 37° C.; read-out: IC90 (μg/ml) STA 29213
Experimental: as §1

BSU 43639 = assay: Microtitre plate assay, IC90 determination, BSU 43639; type: cell-based, Bacillus subtilis; details: Bacillus subtilis; 90% inhibitory concentration for bacterial growth; strain BSU 43639; 24 hours at 37° C.; read-out: IC90 (μg/ml) BSU 43639
Experimental: as §1

STA 25923 = assay: Microtitre plate assay, IC90 determination, STA 25923; type: cell-based, S. aureus; details: Staphylococcus aureus; 90% inhibitory concentration for bacterial growth; strain STA 25923; 24 hours at 37° C.; read-out: IC90 (μg/ml) STA 25923
Experimental: as §1

SMILES	IC50 (M. Smegmatis ATCC607) [µM]	IC90 (ECO 25922) [µg/mL]	IC90 (EFA 29212) [µg/mL]	IC90 (LMO 49594) [µg/mL]	IC90 (SMU 33402) [µg/mL]	IC90 (STA 43300) [µg/mL]	IC90 (STA 29213) [µg/mL]	IC90 (BSU 43639) [µg/mL]	IC90 (STA 25923) [µg/mL]
COc1nc2ccc(Br)cc2cc1C(c1ccccc1)N(CC(=O)N1CCN(C)CC1)Cc1cccc2ncccc12 (stereo not drawn) [Compound 114]	20	62.5 (≈ 100 µM)	12.5 (≈ 20 µM)	49.6 (≈ 79.4 µM)	15.7 (≈ 25.1 µM)	12.5 (≈ 20 µM)	12.5 (≈ 20 µM)		
Cc1ccc2nc(-c3ccccc3)c(C(c3ccccc3)N(CC(=O)N3CCN(C)CC3)Cc3ccccc3)cc2c1 (stereo not drawn) [Compound 72]	1.58	55.5 (≈ 100 µM)		11.1 (≈ 20 µM)	13.9 (≈ 25.1 µM)	11.1 (≈ 20 µM)	11.1 (≈ 20 µM)	8.8 (≈ 15.9 µM)	11.1 (≈ 20 µM)
